Experimental data published in US7351695B2, “Topiramate salts and compositions comprising and methods of making and using the same” (Ortho-McNeil Pharmaceuticals, Inc., priority 2002, dated 2008).
Several values for one entry are separate records, joined by “and”; a condition that tells them apart may be missing. Equal values may be shown once. Read-outs that look alike come from different tables or passages of the source. One block for each compound: values may come before it.

Columns and labels:
[1] = Oral pharmacokinetics in rats, capsules by gavage, plasma by LC/MS/MS; format: in vivo, male Sprague-Dawley rats; details: rat
[2] = Dissolution curves in 0.01 N HCl; format: physicochemical; details: for state at the end of the dissolution experiment: nominal about 110 mM (37 mg/mL free acid concentration)
Description: FIG. 6 provides results of a comparison between the aqueous solubility of topiramate sodium trihydrate with that of topiramate. […] Independently, a set of dissolution curves were obtained in 0.01 N HCl (representative of a modestly acidic stomach), and these are shown in FIG. 7.

[3] = Estimation of solubility: minimum solvent needed to dissolve a known amount; format: physicochemical; details: for Solubility (amount of solid in mL of solvent): sodium trihydrate
Protocol: The solubility of the topiramate sodium trihydrate prepared in this example in water, ethanol, methanol, and THF was estimated by determining the minimum amount of solvent necessary to dissolve a known amount of the compound. In general, a predetermined amount of the compound was placed in a small glass vial, and then solvent was added drop-wise at room temperature until no visible solid remained in the vial.

[4] = pH of an aqueous solution (pH meter); format: physicochemical; details: 400 mg/mL solution in distilled water
[5] = Chemical stability by HPLC analysis of stored samples; format: physicochemical
[6] = Physical stability by TGA and PXRD at preset temperature and relative humidity; format: physicochemical; details: for Physical stability result (solid form): 2 weeks
Protocol: A further study on physical stability of a sample from this example was conducted in glass vials at preset temperatures and controlled relative humidities. The humidities stored at room temperature were controlled using saturated salt solutions (see H. Nyquist, Pharm. Tech. 4(2):47-48 (1983)). At other temperatures, the oven configurations allowed humidity control. After 2 weeks, samples at various conditions were tested by TGA and PXRD to assess whether the crystalline topiramate sodium trihydrate remained intact or not. The data in Table 3 summarize findings after 2 weeks of incubation.

kindled seizures = details: rats; cited from earlier work
[7] = cited from earlier work
[8] = in vivo; cited from earlier work
[9] = nominal concentration about 110 mM

- Tmax ([1]; male, Sprague-Dawley, plasma, oral capsule, 30 mg/kg free topiramate equivalent, first time point, read-out: time of peak plasma concentration (tmax)): 30 min
- solubility at the equilibrium condition relative to (1) and (3) [2]: increased solubility
- state at the end of the dissolution experiment ([2]; listed as topiramate sodium salt trihydrate, sodium trihydrate): not saturated
- pH at the equilibrium condition [2, 9]: 9.5
- solubility ([3]; THF, room temperature (slight overestimate), read-out: Solubility (amount of solid in mL of solvent)): 44.2 mg/mL
- solubility ([3]; ethanol, room temperature, read-out: Solubility (amount of solid in mL of solvent)): 376 mg/mL
- solubility ([3]; methanol, room temperature, single trials, read-out: Solubility (amount of solid in mL of solvent)): 1280 mg/mL
- Solubility (amount of solid in mL of solvent) ([3]; methanol, room temperature, single trials): 1.60 g/mL and 1.53 g/mL
- solubility ([3]; methanol, room temperature, read-out: Average Solubility): 1470 mg/mL
- aqueous solubility relative to topiramate ([3]; vs. literature value of […]): over 100 times
- solubility ([3]; water, FIG. 6, read-out: aqueous solubility): 1300 mg/mL
- solubility ([3]; water, room temperature, single trials, read-out: Solubility (amount of solid in mL of solvent)): 1240 mg/mL
- Solubility (amount of solid in mL of solvent) ([3]; water, room temperature, single trials): 1.435 g/mL
- solubility ([3]; water, room temperature, read-out: Average Solubility): 1330 mg/mL
- pH of solution [4]: about 11.2
- chemical degradation by HPLC ([5]; 2 weeks at 25° C./<5% RH, 25° C./31% RH, 25° C./75% RH, 40° C./ambient RH, or 40° C./75% RH): No chemical degradation
- chemical degradation by HPLC ([5]; >12 weeks at 25° C./<5% RH, 25° C./31% RH, 25° C./75% RH, or 40° C./75% RH): No chemical degradation
- chemical degradation by HPLC ([5]; stored at or above 60° C. for at least 2 weeks): Degradates were observed
- Physical stability result (solid form) ([6]; 5 °C, ambient RH (refrigerated)): Trihydrate
- Physical stability result (solid form) ([6]; 25 °C, 31% RH): Trihydrate
- Physical stability result (solid form) ([6]; 25 °C, 75% RH): Trihydrate
- Physical stability result (solid form) ([6]; 25 °C, <5% RH): Trihydrate & some amorphous
- Physical stability result (solid form) ([6]; 40 °C, 75% RH): Trihydrate
- Physical stability result (solid form) ([6]; 40 °C, ambient RH (<20)): Trihydrate
- Physical stability result (solid form) ([6]; 60 °C, ambient RH (<10)): Amorphous
- Physical stability result (solid form) ([6]; 80 °C, ambient RH (<5)): Amorphous
- temperature up to which the hydrate stays intact ([6]; by TGA): ≤ 40 °C
Compound: CC1(C)O[C@@H]2[C@@H](CO[C@@]3(COS(N)(=O)=O)OC(C)(C)O[C@@H]23)O1 [topiramate sodium trihydrate]
- plasma profile, comparison in words ([1]; oral, 30 mg/kg, FIG. 10): comparable to an oral solution of TOPAMAX®

- state at the end of the dissolution experiment ([2]; listed as topiramate crystal form): remained as suspensions
- time at which dissolution was essentially complete [2, 9]: 5 min
Compound: CC1(C)O[C@@H]2[C@@H](CO[C@@]3(COS(N)(=O)=O)OC(C)(C)O[C@@H]23)O1 [topiramate, 2,3:4,5-Di-O-isopropylidene-β-D-fructopyranose sulfamate]
- blocking kindled seizures (kindled seizures): effective in blocking kindled seizures
- solubility in acetone, chloroform, dimethylsulfoxide, and ethanol [7]: freely soluble
- time to reach peak plasma levels [8]: about two
